{"source": "patent US20260286322A1", "about": "“PROTEIN TYROSINE P[…] DOMAIN PEPTIDE DIMER FOR NERVOUS SYSTEM REPAIR” (NervGen Pharma Corp., priority 2023, published 2026)", "test_system": "animal model of spinal cord injury (SCI rats)", "assay": "Recovery of occasional and frequent walking, inverse Kaplan-Meier on BBB thresholds", "assay_type": "in vivo, rat", "description": "Adult, female Lewis rats (~160 g on arrival) from Envigo were used as the subjects receiving the treatment in the study. The rats were assigned unique identification numbers (PGI ID and tail marks) and housed in ventilated cages. All rats were examined, handled, and weighed prior to initiation of the study to assure adequate health and suitability. During the course of the study, 12/12 light/dark cycles were maintained. The room temperature was maintained between […] and 23° C. with a relative humidity maintained around 50%. Chow and water were provided adlibitum for the duration of the study. The rats were randomly assigned across treatment groups. Body weights were taken twice a week during the study.\nSpinal cord injury (SCI) was introduced to the animals and post-operative care was followed after the injury according to the methods described in Example 3.\nLyophilized Compound 8 was dissolved in saline and injected s.c. at a volume of 500 μl to animal once daily from day 1-day 49 post spinal cord injury.\nThe target dose concentration was 0.8 mg/ml. After reconstitutions, the solution was aliquoted and kept at −20° C. until dosing.\n12-13 rats were used in each of the following two groups: • 1) Control group: SCI+Saline • 2) Testing group: SCI+Compound 8 in Saline.\nInverse Kaplan-Meier graphs were generated based on the Basso, Beattie & Bresnaham (BBB) open field locomotor assessment described above in Example 3. […]\nRecover occasional walking: Occasional walking is defined as less than or equal to half of the attempted steps are successful, corresponding to a BBB score of 10. The week post-SCI in which an animal achieved a 10 or above was recorded and plotted on the Kaplan Meier graph, as defined above.\nRecover frequent walking: Frequent walking is defined as greater than half of the attempted steps are successful and corresponds to a BBB score of 11. The week post-SCI in which an animal achieved an 11 or above was recorded and plotted on the Kaplan Meier graph, as defined above.\nStatistical methods: Kaplan Meier curves were analyzed using the log-rank test. Effects of Compound 4 and Compound 8 on the locomotor function and bladder function were assessed for statistical significance by repeated measures ANOVA (RM-ANOVA) with Geisser-Greenhouse correction for non-sphericity of data and Tukey correction for multiple comparisons or by nonparametric Friedman's test with Dunn's multiple comparison correction. The choice of RM ANOVA or Friedman's test for the analysis of each type of data (BBB scores, BBB subscores, and bladder scores) was determined by the normality of data distribution tests performed for each of the functional scores across all treatment cohorts. […]", "data": [{"substance": "TAT-Cys-rodent PTPRS wedge domain homodimer [Compound 8]", "values": [{"measurement": "time at which recovery of frequent walking was first detected", "setting": "post injury", "result": "after three weeks post injury"}, {"measurement": "time at which recovery of occasional walking reached 50%", "setting": "post-SCI", "result": "less than 6 week"}, {"measurement": "recovery of frequent walking (BBB score of 11 or above), accumulated percent of group", "setting": "week 12 post-SCI", "result": "~50", "unit": "%"}, {"measurement": "recovery of occasional walking (BBB score of 10 or above), accumulated percent of group", "setting": "week 12 post-SCI, 0.8 mg/ml, 500 μl s.c. once daily day 1-49", "result": "~80", "unit": "%"}]}]}
